In brackets after ≈: the same amount, converted by molar mass. Like-named read-outs stand apart in the source and are kept apart here.
Columns and labels:
[1] = Solubility in gastric juice or intestinal juice model fluid (precipitation method using DMSO); assay type: physicochemical; conditions: room temperature
Method: Solubility in Gastric Juice or Intestinal Juice Model Fluid
Measurement was performed by a precipitation method using DMSO. Specifically, each of the dimethyl sulfoxide (DMSO) solutions of the compounds was individually added to 1st fluid for Disintegration Test of Japanese Pharmacopoeia (pH: 1.2) or 2nd fluid for Disintegration Test of Japanese Pharmacopoeia (pH: 6.8), and the mixtures were stirred by shaking at room temperature for 24 hours. Subsequently, insoluble substances in each mixture were removed by filtration, and the UV absorption of each filtrate was measured. The obtained values were individually applied to the calibration curves of the compounds prepared in advance to calculate the concentrations of the compounds dissolved (μg/mL).

[2] = pH 1.2, simulated gastric fluid, kinetic from dmso stock, 1st fluid for Disintegration Test of Japanese Pharmacopoeia (pH: 1.2), read-out: Solubility (μg/mL) 1st fluid
[3] = pH 6.8, kinetic from dmso stock, 2nd fluid for Disintegration Test of Japanese Pharmacopoeia (pH: 6.8), read-out: Solubility (μg/mL) 2nd fluid

Structure (SMILES) | solubility at 24 h [1, 2] | solubility at 24 h [1, 3] | melting point | Solubility (μg/mL) 1st fluid ([1]; 1st fluid for Disintegration Test of Japanese Pharmacopoeia (pH: 1.2), 24 hours) | Solubility (μg/mL) 2nd fluid ([1]; 2nd fluid for Disintegration Test of Japanese Pharmacopoeia (pH: 6.8), 24 hours)
COc1cc(OCn2cccn2)ccc1-c1c[nH]c(-c2ccc(F)nc2)n1 [Example 120] | > 73 µg/mL | 4 µg/mL (≈ 10.9 µM) | 172 to 175 °C | – | –
COc1cc(OC(C)c2ccc(C(F)(F)F)cn2)ccc1-c1[nH]c(-c2ccc(F)nc2)nc1Cl (stereo not drawn) [Example 240] | – | – | 165 to 168 °C | 12 µg/mL (≈ 24.3 µM) | <0.4 µg/mL
COc1cc(OCc2ccc(Br)cc2F)ccc1-c1c[nH]c(-c2ccncc2)n1 [Example 98] | 37.1 µg/mL (≈ 81.7 µM) | 1.3 µg/mL (≈ 2.86 µM) | 226 to 230 °C | – | –
COc1cc(OCc2cc(C(F)(F)F)ccn2)ccc1-c1cnc(-c2ccc(F)nc2)[nH]1 [Example 114] | 11.3 µg/mL (≈ 25.4 µM) | 2.7 µg/mL (≈ 6.08 µM) | 183 to 186 °C | – | –
COc1cc(-c2nc(-c3ccc(Cl)cn3)[nH]c2C)ccc1OCc1ccc(C(F)(F)F)cn1 [Example 31] | 7.7 µg/mL (≈ 16.2 µM) | 1.6 µg/mL (≈ 3.37 µM) | 168 to 171 °C | – | –
COc1cc(OCc2ccc(C(F)(F)F)cn2)ccc1-c1c[nH]c(-c2ccc(Cl)nc2)n1 [Example 94] | 8.7 µg/mL (≈ 18.9 µM) | 0.9 µg/mL (≈ 1.95 µM) | 215 to 217 °C | – | –
COc1cc(OCc2ncccc2C#N)ccc1-c1[nH]c(C2CCC(F)(F)CC2)nc1Br [Example 184] | 96.3 µg/mL (≈ 191 µM) | 5.8 µg/mL (≈ 11.5 µM) | 160 to 161 °C | – | –
COc1cc(-c2cnc(-c3ccc(F)nc3)[nH]2)ccc1OCc1ccc(C(F)(F)F)nc1 [Example 116] | 24.1 µg/mL (≈ 54.2 µM) | < 1.6 µg/mL | 144 to 146 °C | – | –
COc1cc(-c2c[nH]c(C34CC5CC(CC(C5)C3)C4)n2)ccc1OCc1ccc(C(F)(F)F)cn1 [Example 67] | 93.5 µg/mL (≈ 193 µM) | 0.4 µg/mL (≈ 0.827 µM) | 209 to 217 °C | – | –
COc1cc(-c2c[nH]c(C3CCC(C(C)(C)C)CC3)n2)ccc1OCc1ccc(C(F)(F)F)cn1 (stereo not drawn) [Example 69] | 5.3 µg/mL (≈ 10.9 µM) | 1.3 µg/mL (≈ 2.67 µM) | 159 to 161 °C | – | –
COc1cc(OCc2cccc(C#N)n2)ccc1-c1c[nH]c(-c2ccc(Cl)nc2)n1 [Example 60] | 8.8 µg/mL (≈ 21.1 µM) | 1.1 µg/mL (≈ 2.63 µM) | 235 to 239 °C (dec.) | – | –
COc1cc(OCc2ncc(Br)cc2F)ccc1-c1cnc(-c2ccc(Cl)nc2)[nH]1 [Example 105] | 27.6 µg/mL (≈ 56.4 µM) | < 0.3 µg/mL | 219 to 225 °C | – | –
COc1cc(OCc2coc(C)n2)ccc1-c1[nH]c(C2CCC(F)(F)CC2)nc1Cl [Example 197] | > 88 µg/mL | 25.7 µg/mL (≈ 58.7 µM) | 130 to 131 °C | – | –
COc1cc(OCc2ncccc2C(F)(F)F)ccc1-c1[nH]c(-c2ccc(F)nc2)nc1Br [Example 275] | 96 µg/mL (≈ 183 µM) | 4.2 µg/mL (≈ 8.03 µM) | 144 to 154 °C | – | –
COc1cc(OCc2ccc(C(F)(F)F)nc2)ccc1-c1c(Br)nc(-c2ccc(F)nc2)n1C [Example 305] | 24.7 µg/mL (≈ 46 µM) | 0.4 µg/mL (≈ 0.744 µM) | 134 to 136 °C | – | –
COc1cc(OCc2ccc(C(F)(F)F)nc2)ccc1-c1nc(-c2ccc(F)cn2)[nH]c1Cl [Example 226] | < 8.5 µg/mL | 3.4 µg/mL (≈ 7.1 µM) | 186 to 193 °C (dec.) | – | –
COc1cc(OCc2ccc(C(F)(F)F)cn2)ccc1-c1c[nH]c(C2CCCCCC2)n1 [Example 75] | 83.1 µg/mL (≈ 187 µM) | 1 µg/mL (≈ 2.24 µM) | 202 to 204 °C (dec.) | – | –
COc1cc(OCc2ncc(C(F)(F)F)cc2F)ccc1-c1cnc(-c2ccc(F)nc2)[nH]1 [Example 139, 3-fluoro-2-[[4-(2-(6-fluoropyridin-3-yl)-1H-imidazol-5-yl)-3-methoxyphenoxy]methyl]-5-(trifluoromethyl)pyridine] | 5 µg/mL (≈ 10.8 µM) | < 0.3 µg/mL | > 230 °C | – | –
COc1cc(-c2c[nH]c(C3CC3)n2)ccc1OCc1ccc(C(F)(F)F)cn1 [Example 82] | > 78 µg/mL | 41.1 µg/mL (≈ 106 µM) | 153 to 155 °C | – | –
